Measurements from paper PMC7464270, “The Interaction of Bovine β-Lactoglobulin with Caffeic Acid: From Binding Mechanisms to Functional Complexes” (Biomolecules, 2020).

Biological target: T1, native bovine β-lactoglobulin (n-β-LG) (Bos taurus, UniProt P02754)
T1 construct: gene LGB; dimer prevails at physiological pH
T1 sequence (P02754 17-178): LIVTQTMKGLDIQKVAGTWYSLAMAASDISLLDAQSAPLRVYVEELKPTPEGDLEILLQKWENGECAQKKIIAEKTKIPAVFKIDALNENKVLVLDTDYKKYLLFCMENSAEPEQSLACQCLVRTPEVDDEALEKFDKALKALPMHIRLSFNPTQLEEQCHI
Assay: intrinsic tryptophan fluorescence quenching (excitation […] nm)
Type: binding
Details: native protein treated at 25 °C (measured at 23 ± 1 °C), Tris buffer pH 8.0; double-log

O=C(O)/C=C/c1ccc(O)c(O)c1 [CA, caffeic acid]
n-β-LG / Kb (10^6 Mol^-1): 0.72 ± 0.03 10^6 Mol^-1
